# Experimental data: PubChem BioAssay (NCI)
#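 Values below derive from 48-hour exposures of cells grown in 96-well plates, with endpoints linearly interpolated between the two concentrations bracketing the appropriate inhibition level. The concentration for full growth arrest is given as TGI.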
# Tests used:
# Assay in all cases: NCI tumour cell line growth inhibition, 48 h
# RPMI-8226 leukemia = tested on: RPMI-8226 leukemia
# HS 578T breast = tested on: HS 578T breast
# OVCAR-3 ovarian = tested on: OVCAR-3 ovarian
# LOX IMVI melanoma = tested on: LOX IMVI melanoma
# TK-10 renal = tested on: TK-10 renal
# MOLT-4 leukemia = tested on: MOLT-4 leukemia
# EKVX NSCLC = tested on: EKVX NSCLC
# DU-145 prostate = tested on: DU-145 prostate
# HCC-2998 colon = tested on: HCC-2998 colon
# KM12 colon = tested on: KM12 colon
# UACC-62 melanoma = tested on: UACC-62 melanoma
# NCI/ADR-RES ovarian = tested on: NCI/ADR-RES ovarian
# SF-539 CNS = tested on: SF-539 CNS
# K-562 leukemia = tested on: K-562 leukemia
# CCRF-CEM leukemia = tested on: CCRF-CEM leukemia
# T-47D breast = tested on: T-47D breast
# NCI-H226 lung = tested on: NCI-H226 lung
# NCI-H460 lung = tested on: NCI-H460 lung
# 786-0 renal = tested on: 786-0 renal
# CAKI-1 renal = tested on: CAKI-1 renal
# MDA-MB-231 breast = tested on: MDA-MB-231 breast
# SF-268 CNS = tested on: SF-268 CNS
# ACHN renal = tested on: ACHN renal
# SK-MEL-28 melanoma = tested on: SK-MEL-28 melanoma
# A549 NSCLC = tested on: A549 NSCLC
# HCT-116 colon = tested on: HCT-116 colon
# A498 renal = tested on: A498 renal
# SNB-19 CNS = tested on: SNB-19 CNS
# RXF 393 renal = tested on: RXF 393 renal
# MALME-3M melanoma = tested on: MALME-3M melanoma
# SW-620 colon = tested on: SW-620 colon
# SN12C renal = tested on: SN12C renal
# OVCAR-4 ovarian = tested on: OVCAR-4 ovarian
# HOP-62 NSCLC = tested on: HOP-62 NSCLC
# SK-MEL-2 melanoma = tested on: SK-MEL-2 melanoma
# HL-60(TB) leukemia = tested on: HL-60(TB) leukemia
# NCI-H23 lung = tested on: NCI-H23 lung
# BT-549 breast = tested on: BT-549 breast
# SNB-75 CNS = tested on: SNB-75 CNS
# SF-295 CNS = tested on: SF-295 CNS
# SK-MEL-5 melanoma = tested on: SK-MEL-5 melanoma
# UACC-257 melanoma = tested on: UACC-257 melanoma
# HT29 colon = tested on: HT29 colon
# MDA-N = tested on: MDA-N
# HCT-15 colon = tested on: HCT-15 colon
# M14 melanoma = tested on: M14 melanoma
# HOP-92 NSCLC = tested on: HOP-92 NSCLC
# NCI-H522 lung = tested on: NCI-H522 lung
# MCF7 breast = tested on: MCF7 breast
# PC-3 prostate = tested on: PC-3 prostate
# OVCAR-5 ovarian = tested on: OVCAR-5 ovarian
# IGROV1 ovarian = tested on: IGROV1 ovarian
# COLO 205 colon = tested on: COLO 205 colon
# U251 CNS = tested on: U251 CNS
# SR leukemia = tested on: SR leukemia
# MDA-MB-435 = tested on: MDA-MB-435
# OVCAR-8 ovarian = tested on: OVCAR-8 ovarian
# UO-31 renal = tested on: UO-31 renal
# SK-OV-3 ovarian = tested on: SK-OV-3 ovarian
smiles,measurement,setting,value
CN1CCN(c2n[nH]c(=O)c3c2nnn3C2CCCCC2)CC1,TGI,RPMI-8226 leukemia,> 100 µM
same,TGI,HS 578T breast,> 100 µM
same,TGI,OVCAR-3 ovarian,> 100 µM
same,TGI,LOX IMVI melanoma,> 100 µM
same,TGI,TK-10 renal,> 100 µM
same,TGI,MOLT-4 leukemia,> 100 µM
same,TGI,EKVX NSCLC,> 100 µM
same,TGI,DU-145 prostate,> 100 µM
same,TGI,HCC-2998 colon,> 100 µM
same,TGI,KM12 colon,> 100 µM
same,TGI,UACC-62 melanoma,> 100 µM
same,TGI,NCI/ADR-RES ovarian,> 100 µM
same,TGI,SF-539 CNS,> 100 µM
same,TGI,K-562 leukemia,> 100 µM
same,TGI,CCRF-CEM leukemia,> 100 µM
same,TGI,T-47D breast,> 100 µM
same,TGI,NCI-H226 lung,> 100 µM
same,TGI,NCI-H460 lung,> 100 µM
same,TGI,786-0 renal,> 100 µM
same,TGI,CAKI-1 renal,> 100 µM
same,TGI,MDA-MB-231 breast,> 100 µM
same,TGI,SF-268 CNS,> 100 µM
same,TGI,ACHN renal,> 100 µM
same,TGI,SK-MEL-28 melanoma,> 100 µM
same,TGI,A549 NSCLC,> 100 µM
same,TGI,HCT-116 colon,> 100 µM
same,TGI,A498 renal,> 100 µM
same,TGI,SNB-19 CNS,> 100 µM
same,TGI,RXF 393 renal,> 100 µM
same,TGI,MALME-3M melanoma,> 100 µM
same,TGI,SW-620 colon,> 100 µM
same,TGI,SN12C renal,> 100 µM
same,TGI,OVCAR-4 ovarian,> 100 µM
same,TGI,HOP-62 NSCLC,> 100 µM
same,TGI,SK-MEL-2 melanoma,> 100 µM
same,TGI,HL-60(TB) leukemia,> 100 µM
same,TGI,NCI-H23 lung,> 100 µM
same,TGI,BT-549 breast,> 100 µM
same,TGI,SNB-75 CNS,> 100 µM
same,TGI,SF-295 CNS,> 100 µM
same,TGI,SK-MEL-5 melanoma,> 100 µM
same,TGI,UACC-257 melanoma,> 100 µM
same,TGI,HT29 colon,> 100 µM
same,TGI,MDA-N,> 100 µM
same,TGI,HCT-15 colon,> 100 µM
same,TGI,M14 melanoma,> 100 µM
same,TGI,HOP-92 NSCLC,> 100 µM
same,TGI,NCI-H522 lung,> 100 µM
same,TGI,MCF7 breast,> 100 µM
same,TGI,PC-3 prostate,> 100 µM
same,TGI,OVCAR-5 ovarian,> 100 µM
same,TGI,IGROV1 ovarian,> 100 µM
same,TGI,COLO 205 colon,> 100 µM
same,TGI,U251 CNS,> 100 µM
same,TGI,SR leukemia,> 100 µM
same,TGI,MDA-MB-435,> 100 µM
same,TGI,OVCAR-8 ovarian,> 100 µM
same,TGI,UO-31 renal,> 100 µM
CC/C=C\C=C/C(=O)N/C=C/CCC,TGI,RPMI-8226 leukemia,> 100 µM
same,TGI,HS 578T breast,> 100 µM
same,TGI,OVCAR-3 ovarian,> 100 µM
same,TGI,LOX IMVI melanoma,> 100 µM
same,TGI,TK-10 renal,> 100 µM
same,TGI,MOLT-4 leukemia,95.6 µM
same,TGI,EKVX NSCLC,> 100 µM
same,TGI,DU-145 prostate,> 100 µM
same,TGI,HCC-2998 colon,> 100 µM
same,TGI,KM12 colon,> 100 µM
same,TGI,UACC-62 melanoma,> 100 µM
same,TGI,NCI/ADR-RES ovarian,> 100 µM
same,TGI,SF-539 CNS,> 100 µM
same,TGI,K-562 leukemia,> 100 µM
same,TGI,CCRF-CEM leukemia,> 100 µM
same,TGI,T-47D breast,> 100 µM
same,TGI,NCI-H226 lung,> 100 µM
same,TGI,NCI-H460 lung,> 100 µM
same,TGI,786-0 renal,> 100 µM
same,TGI,CAKI-1 renal,> 100 µM
same,TGI,MDA-MB-231 breast,> 100 µM
same,TGI,SF-268 CNS,> 100 µM
same,TGI,ACHN renal,> 100 µM
same,TGI,SK-MEL-28 melanoma,> 100 µM
same,TGI,A549 NSCLC,> 100 µM
same,TGI,HCT-116 colon,> 100 µM
same,TGI,A498 renal,> 100 µM
same,TGI,SNB-19 CNS,> 100 µM
same,TGI,RXF 393 renal,> 100 µM
same,TGI,MALME-3M melanoma,> 100 µM
same,TGI,SW-620 colon,> 100 µM
same,TGI,SN12C renal,> 100 µM
same,TGI,OVCAR-4 ovarian,> 100 µM
same,TGI,HOP-62 NSCLC,> 100 µM
same,TGI,SK-MEL-2 melanoma,> 100 µM
same,TGI,HL-60(TB) leukemia,> 100 µM
same,TGI,NCI-H23 lung,> 100 µM
same,TGI,BT-549 breast,> 100 µM
same,TGI,SNB-75 CNS,> 100 µM
same,TGI,UACC-257 melanoma,> 100 µM
same,TGI,HT29 colon,> 100 µM
same,TGI,SK-OV-3 ovarian,> 100 µM
same,TGI,MDA-N,> 100 µM
same,TGI,HCT-15 colon,> 100 µM
same,TGI,M14 melanoma,> 100 µM
same,TGI,HOP-92 NSCLC,> 100 µM
same,TGI,NCI-H522 lung,36 µM
same,TGI,MCF7 breast,> 100 µM
same,TGI,PC-3 prostate,> 100 µM
same,TGI,OVCAR-5 ovarian,> 100 µM
same,TGI,IGROV1 ovarian,> 100 µM
same,TGI,U251 CNS,> 100 µM
same,TGI,SR leukemia,> 100 µM
same,TGI,MDA-MB-435,> 100 µM
same,TGI,OVCAR-8 ovarian,> 100 µM
same,TGI,UO-31 renal,> 100 µM
